Measurements: patent US20260008784A1 (VASTHERA CO., LTD., priority 2022, published 2026)
Read-outs that look alike come from different tables or passages of the source.

Key:
[1] = Cytotoxicity assay (WST-1), smooth muscle cell; conditions: human, human aortic smooth muscle cells (HASMC)
Method: (§6) For cytotoxicity analysis, human aortic endothelial cells (HAEC) and smooth muscle cells (HASMC) were seeded in a 96-well culture plate at density of 4000 cells/well in a final volume of 100 μL. Cells were cultured for 24 h and serum-starved for an additional 18 h. Test compounds were serially diluted with EBM-2 culture medium, added to the plate at 100 μL/well, and further incubated for 24 h. The number of viable cells was measured using the WST-1 cell viability assay kit (Roche Diagnostics, USA). Cell number was expressed as absorbance values at 450 nm after subtracting the turbidity value at 600 nm. The absorbance values from three replicate wells were averaged.
(§7) After treatment with ascending concentrations of each compound, the concentration of test compound corresponding to 50% cell viability (CC50) was measured.

[2] = Cytotoxicity assay (WST-1), endothelial cell; conditions: human, human aortic endothelial cells (HAEC)
Method: as §6, §7

[3] = Cytotoxicity test, liver cell; conditions: hepatocytes
Method: (§8) Cytotoxicity tests were performed against vascular endothelial cells, vascular smooth muscle cells and hepatocytes. After treatment with ascending concentrations of each compound, the concentration of test compound corresponding to 50% cell viability (CC50) was measured.

[4] = system: yeast thioredoxin (Trx)/yeast Trx reductase (TR); test: Peroxidase activity assay (H2O2 reduction, NADPH oxidation); assay type: biochemical; conditions: 50 μM test compound, 3 μM yeast Trx, 1.5 μM yeast TR, 250 μM NADPH, 1.2 mM H2O2, 30° C.; NADPH oxidized per minute
Method: Hydrogen peroxide (H2O2)-reducing peroxidase activity of compounds in present invention was performed as follows. Peroxyredoxin activity was measured in reaction mixture (200 μL volume) containing 50 mM HEPES buffer (pH 7.0), 1 mM EDTA, 250 μM NADPH, 3 μM yeast thioredoxin (Trx), 1.5 μM yeast Trx reductase (TR), 50 μM test compound, and 1.2 mM H2O2.
Reaction was initiated by adding H2O2 and the decrease in absorbance at 340 nm was measured using Agilent UV8453 spectrophotometry (Hewlett Packard, USA) at 30° C. for 12 min. Initial reaction rate is the amount of NADPH oxidized per minute calculated from slope of the linear part of curve.
The H2O2-reducing peroxidase activity of the test compounds in present invention was measured in a reaction mixture containing thioredoxin (Trx)/thioredoxin reductase (TR), respectively.

[5] = reference potential values of Trx and GSH for comparison; cited from earlier work
in vitro [6] = conditions: human
Method: as §6, §7

in vitro [7] = conditions: human; remark: listed apart in the source
Method: as §6, §7

[8] = system: Tyr 857 phosphorylation of PDGF receptor-β (PDGFRβ) in HASMC; test: Immunoblot of PDGF-mediated signaling in PrxII knock-down HASMC; assay type: cell-based, human; conditions: HASMC depleted of PrxII expression, FIG. 2
Method: (§1) Cells were quickly washed in ice-cold phosphate-buffered saline (PBS) and lysed in extraction buffer containing 20 mM Hepes (pH 7.0), 1% Triton X-100, 150 mM NaCl, 10% glycerol, 1 mM EDTA, 2 mM EGTA, and 1 mM DTT, 5 mM Na3VO4, 5 mM NaF, 1 mM AEBSF, aprotinin (5 μg/mL), and leupeptin (5 μg/mL). After cen-trifugation at 12,000×g, the clarified cell extracts were used for immunoblotting. For re-blotting, the immunoblots were retrieved in a solution of 67 mM Tris (pH 6.7), 2% SDS, and 100 mM 2-mercaptoethanol at 60° C. for 30 min to remove antibodies and rinsed three times with a Tris-buffered saline (TBS) solution containing 1% Triton X-100. The retrieved membranes were subjected to new immunoblotting.
In human aortic smooth muscle cell (HASMC) and human pulmonary artery smooth muscle cell (PASMC) in which PrxII was knocked out by transfecting the PrxII siRNA, the ability of test compounds to replace the cellular function of PrxII was evaluated. That is, the efficacy of the new compounds was verified in terms of signaling pathways induced by PDGF that regulates the growth and migration of vascular smooth muscle cells in the aorta and pulmonary artery. Activation of PDGF-induced signaling pathway was analyzed by an immunoblot method using an antibody that specifically recognizes phosphorylation of Tyr 857, which is a major phosphorylation site on PDGF receptor (PDGFRβ).

in vitro [9] = test: in vitro
Method: as §8

[10] = system: Tyr 1175 phosphorylation of VEGF receptor-2 (VEGFR2) in HAEC; test: Immunoblot of VEGF-mediated signaling in PrxII knock-down HAEC; assay type: cell-based, human; conditions: HAECs depleted of PrxII expression, FIG. 5
Method: as §1
In human aortic endothelial cell (HAEC) and human pulmonary artery endothelial cell (PAEC) in which PrxII was knocked out by transfecting the PrxII siRNA, the ability of test compounds to replace the cellular function of PrxII was evaluated. That is, the efficacy of the new compounds was verified in terms of signaling pathways induced by VEGF that regulates the growth and migration of vascular endothelial cells in the aorta and pulmonary artery. Activation of VEGF-induced signaling pathway was analyzed by an immunoblot method using an antibody that specifically recognizes phosphorylation of Tyr 1175, which is a major phosphorylation site on VEGF receptor-2 (VEGFR2).

[11] = system: human pulmonary artery endothelial cell (PAEC); test: VEGF-induced proliferation assay, PAEC (PrxII siRNA); assay type: cell-based; conditions: for Degree of PAEC proliferation: VEGF-A 25 ng/mL, percent of untreated control
Method: (§2) HAECs and PAECs were transfected with a PrxII-specific siRNA using RNAi MAX transfection reagent according to manufacturer's protocol. After 24 hours, transfected cells (3,000 cells/well) were seeded in a 96-well culture plate. At 12 h after seeding, cells were serum-starved for additional 18 h in EBM basal medium containing 0.5% FBS. Test compounds were serially diluted with the same basal medium containing 0.5% FBS, added to the cells ([…]), and incubated for 2 h. After treatment, cells were placed in fresh EBM medium containing 0.5% FBS and VEGF-A (25 ng/mL) for growth factor stimulation and further cultured for 24 h.
(§3) The degree of cell proliferation was measured using the Cell Titer-GLO kit ([…]). Data are the percent of luminescence intensity averaged from three replicate wells versus that of untreated control group.
(§4) In human aortic endothelial cell (HAEC) and human pulmonary artery endothelial cell (PAEC) in which PrxII was knocked out by transfecting the PrxII siRNA, the ability of test compounds to augment the VEGF-induced proliferation of vascular endothelial cells was evaluated. In Table 7, the degree of proliferation in the compound-treated groups is expressed as percent of the degree of proliferation in untreated control group. The effective concentrations of test compounds increasing cell proliferation by 50% (EC50) is also listed.

[12] = system: human aortic endothelial cell (HAEC); test: VEGF-induced proliferation assay, HAEC (PrxII siRNA); assay type: cell-based; conditions: for Degree of HAEC proliferation: VEGF-A 25 ng/mL, percent of untreated control
Method: as §2, §3, §4

[13] = system: human aortic smooth muscle cell (HASMC); test: PDGF-induced proliferation assay, HASMC (PrxII siRNA); assay type: cell-based; conditions: for Degree of HASMC proliferation: PDGF-BB 25 ng/mL, percent of untreated control
Method: as §2, with “HASMCs” for “HAECs”, “PASMCs” for “PAECs”, “SmBM” for “EBM”, “PDGF-BB” for “VEGF-A”
as §3
(§5) In human aortic smooth muscle cell (HASMC) and human pulmonary artery smooth muscle cell (PASMC) in which PrxII was knocked out by transfecting the PrxII siRNA, the ability of test compounds to inhibit the PDGF-induced proliferation of vascular smooth muscle cells was evaluated. In Table 6, the degree of proliferation in the compound-treated groups is expressed as percent of the degree of proliferation in untreated control group. The concentrations of test compounds corresponding to 50% growth inhibition (IC50) is also listed.

[14] = system: human pulmonary artery smooth muscle cell (PASMC); test: PDGF-induced proliferation assay, PASMC (PrxII siRNA); assay type: cell-based; conditions: for Degree of PASMC proliferation: PDGF-BB 25 ng/mL, percent of untreated control
Method: as §2, with “HASMCs” for “HAECs”, “PASMCs” for “PAECs”, “SmBM” for “EBM”, “PDGF-BB” for “VEGF-A”
as §3, §5

[15] = system: human aortic smooth muscle cells (HASMC); test: Cytotoxicity assay (WST-1), smooth muscle cell; conditions: read-out: Cell cytotoxicity (CC50) Smooth muscle cell; 24 h, concentration corresponding to 50% cell viability
Method: as §6, §7

[16] = system: human aortic endothelial cells (HAEC); test: Cytotoxicity assay (WST-1), endothelial cell; conditions: read-out: Cell cytotoxicity (CC50) Endothelial cell; 24 h, concentration corresponding to 50% cell viability
Method: as §6, §7

hepatocytes = test: Cytotoxicity test, liver cell; conditions: read-out: Cell cytotoxicity (CC50) Liver cell; concentration corresponding to 50% cell viability
Method: as §8

[17] = Measurement of redox potential (DTT redox buffers, HPLC); assay type: physicochemical; conditions: DTT(Red)/DTT(Ox) redox buffers, 3 h, 30° C., 50% reduction of test compound
Method: A test compound (10 mM) was diluted 20-fold with each redox buffer solution and incubated for 3 h in a 30° C. water bath. Then, compounds were analyzed by HPLC. The area of peaks corresponding to the oxidized and reduced forms of test compound based on specific retention time was calculated and plotted as percent of total peak area against the Nernst equation value (mV) at x-axis. The Nernst equation value corresponding to 50% reduction of test compound was set as the midpoint redox potential value for test compound.
The redox potential values of the test compounds were analyzed based on the potential values established in redox buffer solutions where reduced and oxidized DTT are mixed at various ratios.

[18] = Homo sapiens, Endothelial cell, effective concentration increasing cell proliferation by 50%, VEGF-stimulated

## CN1C(=O)C2CSSC1(C)C(=O)N2Cc1nc2ccccc2s1 (stereo not drawn) [Compound 15, 6-(benzo[d]thiazol-2-ylmethyl)-1,8-dimethyl-2,3-dithia-6,8-diazabicyclo[3.2.2]nonane-7,9-dione]
[1]
  CC50 at 24 h: 98.5 µM
[2]
  CC50 at 24 h: 114 µM
[3]
  CC50: 157 µM

## CN1C(=O)C2CSSC1(C)C(=O)N2Cc1cccs1 (stereo not drawn) [Compound 14, 1,8-dimethyl-6-(thiophen-2-ylmethyl)-2,3-dithia-6,8-diazabicyclo[3.2.2]nonane-7,9-dione]
[4]
  Peroxidase activity for H2O2 reduction: 4.78 nmol/min
[1]
  CC50 at 24 h: > 500 µM

## thioredoxin [Trx]
[5]
  Midpoint redox potential (E m): −270 mV

## CN1C(=O)C2(Cc3ccccc3)SSCC1C(=O)N2C (stereo not drawn) [Compound 19, 1-benzyl-6,8-dimethyl-2,3-dithia-6,8-diazabicyclo[3.2.2]nonane-7,9-dione]
[4]
  Peroxidase activity for H2O2 reduction: 5.69 nmol/min
In vitro [6]
  CC50: > 500 µM
In vitro [7]
  CC50: > 500 µM
[8]
  Effect on phosphorylation of Tyr 857 on PDGFR: strongly abolish the phosphorylation
In vitro [9]
  CC50: > 500 µM

## N[C@@H](CCC(=O)N[C@@H](CS)C(=O)NCC(=O)O)C(=O)O [GSH]
[5]
  Midpoint redox potential (E m): −240 mV

## CN1CCN2C(=O)C3CSSC2(C1)C(=O)N3C (stereo not drawn) [Compound 23]
[4]
  Peroxidase activity for H2O2 reduction: 8.81 nmol/min
[10]
  Effect on phosphorylation of Tyr 1175 on VEGFR2: strongly abolish the phosphorylation
In vitro [7]
  CC50: > 500 µM
[8]
  Effect on phosphorylation of Tyr 857 on PDGFR: strongly abolish the phosphorylation
[11]; 2.5 nM
  Degree of PAEC proliferation: 109.2%
[11]; 5 nM
  Degree of PAEC proliferation: 122.9%
[11]; 10 nM
  Degree of PAEC proliferation: 148.3%
[11]; 25 nM
  Degree of PAEC proliferation: 173.3%
[11]; 50 nM
  Degree of PAEC proliferation: 155.3%
[11]; 100 nM
  Degree of PAEC proliferation: 133.9%
[11]; [18]
  EC50: 0.0052 µM
In vitro [9]
  CC50: 123 µM
[12]; 2.5 nM
  Degree of HAEC proliferation: 109.4%
[12]; 5 nM
  Degree of HAEC proliferation: 122.6%
[12]; 10 nM
  Degree of HAEC proliferation: 161.3%
[12]; 25 nM
  Degree of HAEC proliferation: 187.6%
[12]; 50 nM
  Degree of HAEC proliferation: 177.1%
[12]; 100 nM
  Degree of HAEC proliferation: 133.0%
[12]; [18]
  EC50: 0.00972 µM
[13]; 2.5 nM
  Degree of HASMC proliferation: 89.8%
[13]; 5 nM
  Degree of HASMC proliferation: 54.3%
[13]; 10 nM
  Degree of HASMC proliferation: 34.4%
[13]; 25 nM
  Degree of HASMC proliferation: 20.4%
[13]; Homo sapiens, HASMC, 50% growth inhibition, PDGF-stimulated
  IC50: 0.00685 µM
[14]; 2.5 nM
  Degree of PASMC proliferation: 70.8%
[14]; 5 nM
  Degree of PASMC proliferation: 43.3%
[14]; 10 nM
  Degree of PASMC proliferation: 32.9%
[14]; 25 nM
  Degree of PASMC proliferation: 14.6%
[14]; 50 nM
  Degree of PASMC proliferation: 3.2%
[14]; 100 nM
  Degree of PASMC proliferation: 0.0%
[14]; Homo sapiens, PASMC, 50% growth inhibition, PDGF-stimulated
  IC50: 0.00476 µM

## O=C1C2CSSC3(CCCN13)C(=O)N2Cc1ccccc1 (stereo not drawn) [Compound 7, 11-benzyltetrahydro-5H,7H-4,9a-(epiminomethano)pyrrolo[2,1-c][1,2,4]dithiazepine-5,10-dione]
[4]
  Peroxidase activity for H2O2 reduction: 3.83 nmol/min
[15]
  CC50: > 500 µM
[16]
  CC50: > 500 µM
hepatocytes
  CC50: > 500 µM
[17]
  Midpoint redox potential (E m): −300.98 mV
